Data on three compounds can be found in article PMC7937321 (Genes and Environment, 2021).

One data set has as its system rodent. To be noted: cited from earlier work.
The test system of data set [1] is L5178Y mouse lymphoma cells. As to conditions: cited from earlier work.
Data set [2] concerns human lymphoblastoid TK6 cells, thymidine kinase gene.
Data set [3] concerns TA1538, TA100, TA98, TA97, TA1535. To be noted: ref [18]-[40], Table 2, cited from earlier work.
Data set [4] has as its system human lymphoblastoid TK6 cells, thymidine kinase gene. In words: TK gene mutation assay (TK6 assay, OECD TG490). As to conditions: for MF: graph sheet Short-S9.
In a further data set the test system is TK6 cells. In words: Cytotoxicity in the TK6 assay (CE, RS, RSG, RTG). To be noted: +S9 mix.
[5] abbreviates: dose 3.00 μg/mL, short treatment, +S9 mix.
Setting [6] is: short treatment, +S9 mix, positive control, dose 10.00 μg/mL.
[7] abbreviates: Short treatment, 3.00 μg/mL, Day 0.
Where [8] appears, read: dose 3.00 μg/mL, short treatment.
Setting [9] is: short treatment, Day 0, positive control, dose 10.00 μg/mL.

Take `CNc1ccc(N(CCO)CCO)cc1[N+](=O)[O-]` [HC blue No. 1, reference compound]: the carcinogenicity classification result with rodent (ref [84]) is “carcinogen”. The “mutagenicity in MLA (+S9)” value in data set [1] (+S9, ref [68]) is “positive with weak response”. Besides, in data set [1] (substance with high purity, −S9, ref [27], [85]), the “MLA (−S9)” value is listed as “negative”.

`IC(I)I` [Iodoform]: the “MF at high-dose levels” value in data set [2] is “dose-dependent increase in MF”. Also, the “TK6 assay overall judgment” value in data set [2] is “negative”. For the same compound, the “TK6 assay result (mutant frequency increase, judgment)” value in data set [2] is on record as “Negative”. The “TK mutation assay, Long term” value in data set [2] is reported as “Neg”. For the same compound, the “TK mutation assay, With S9” value in data set [2] was “Neg”. Moreover, the “TK mutation assay, Without S9” value in data set [2] is on record as “Neg”. Besides, the “Carcinogenicity Studies” value in the data set with rodent (rodent, ref [20]-[41], Table 2) is recorded as “Neg”. The “Bacterial reverse mutation assay, With S9” value in data set [3] (with S9) is listed as “Pos”. In data set [3] (without S9), the “Bacterial reverse mutation assay, Without S9” value is “Pos”. Besides, the MF amounted to 2.7 in data set [4] (6.25 μg/mL, -S9 mix); 3.0 in data set [4] (50.0 μg/mL, -S9 mix); 4.5 in data set [4] (100.0 μg/mL, -S9 mix); 3.2 in data set [4] (200.0 μg/mL, -S9 mix). Moreover, the “%SG” value in data set [4] (6.25 μg/mL, short treatment, -S9 mix) is recorded as 88.0%; in data set [4] (50.0 μg/mL, short treatment, -S9 mix) it was 48.2%; in data set [4] (100.0 μg/mL, short treatment, -S9 mix) it was 69.7%; in data set [4] (200.0 μg/mL, short treatment, -S9 mix), 80.4%; in data set [4] (24 h treatment -S9 mix, dose 10.00 μg/mL), 71.6%; in data set [4] (24 h treatment -S9 mix, dose 20.00 μg/mL), 71.8%. For the same compound, the “%SG” value worked out at 87.1% in data set [4] (24 h treatment -S9 mix, dose 30.00 μg/mL); 100.0% in data set [4] (24 h treatment -S9 mix, dose 40.0 μg/mL); 100.0% in data set [4] (24 h treatment -S9 mix, dose 50.0 μg/mL); 79.6% in data set [4] (24 h treatment -S9 mix, dose 60.0 μg/mL); 85.6% in data set [4] (24 h treatment -S9 mix, dose 70.0 μg/mL); 65.1% in data set [4] (Short treatment +S9 mix, dose 25 μg/mL). Also, the “%SG” value in data set [4] (Short treatment +S9 mix, dose 50 μg/mL) was determined as 57.3%; in data set [4] (Short treatment +S9 mix, dose 100 μg/mL) it was 65.1%; in data set [4] (Short treatment +S9 mix, dose 200 μg/mL), 61.0%.

Consider `O=P1(N(CCCl)CCCl)NCCCO1` (stereo not drawn) [CP, Cyclophosphamide, reference compound], for which, in data set [4] (setting [5]), the “%SG” value amounted to 75.7%, the “Mut. freq. (×10-6) N-MF” value is 14.0 ×10-6, the “Mut. freq. (×10-6) S-MF” value is on record as 43.8 ×10-6 and the “Mut. freq. (×10-6) T-MF” value is given as 57.8 ×10-6. In data set [4] (short treatment with S9 mix, 2.5–3 μg/mL), the “mutant frequency of the concurrent positive control (mean)” value is recorded as 28.6 × 10^− 6. Moreover, in data set [4] (setting [6]), the “%SG” value is 50.8%, the “Mut. freq. N-MF” value was 10.0 ×10-6, the “Mut. freq. S-MF” value is on record as 10.3 ×10-6 and the “Mut. freq. T-MF” value was 20.3 ×10-6. In the data set with TK6 cells (Short treatment, 3.00 μg/mL), the “Daily cell growth Day 1×2×3” value turned out to be 7.35 and the RSG is 0.385. In the data set with TK6 cells (setting [7]), the “Adjusted CE0” value is 34.5%, the CE0 stood at 36.0% and the RS0 came out at 43.1%. This compound had a CE3 in the data set on TK6 cells (Short treatment, 3.00 μg/mL, Day 3) of 66.7%. In the data set on TK6 cells (setting [8]), this compound yielded a CE3 of 0.667 and an RS of 43.1. Moreover, in the data set on TK6 cells (setting [9]), the “Adjusted CE0” value was 11.6%, the CE0 is given as 10.6% and the RS0 was 12.2%. The CE3 in the data set on TK6 cells (short treatment, Day 3, positive control, dose 10.00 μg/mL) worked out at 68.7%. Further, the CE3 in the data set with TK6 cells (short treatment, as fraction, positive control, dose 10.00 μg/mL) is reported as 0.687. Moreover, the RSG in the data set on TK6 cells (short treatment, positive control, dose 10.00 μg/mL) worked out at 0.063.
